Tests used:
[1] = system: photoreceptors; experiment: Paraquat-induced photoreceptor apoptosis in vitro; assay type: cell-based, Wistar albino rats
Experimental: Tyramide signal amplification (TSA)-FISH PerkinElmer, Boston, Mass., USA.); secondary antibodies, monoclonal antibodies to-Bax (sc-7480), Bcl-2 (sc-7382), rodopsine RET-P1 (sc-57433) (Santa Cruz Biotechnology, Inc.—USA), PhA, Docosahexaenoic acid, Paraquat Dichloride, (Sigma-Alldrich). Solvents and reactors had HPLC and analytic grade.
Purified cultures of neurons from Wistar albino rats were prepared according to Politi et al., (1966) and treated in a poli-ornithine medium as in Adler-R (1982). On the first day of culture, equal concentrations of DHA (9 mM) were added to neuron cultures, with 7 different concentrations of PhA ([…]), usually found in marine origin oils rich in DHA, and 2 controls without DHA, with or without Paraquat. On the third day of culture, Paraquat was added, incubating it for 24 h before fixing it for an hour with paraformaldehyde in a phosphate buffered saline (0.9% NaCl in 0.01 M NaH2PO4 [pH 7.4], following 15 minutes with Triton X-100 (0.1%). In the apoptosis, the expression of Bax and Bcl-2 was determined and quantified according to the method Rotstein-N P et al. (2003). For the cytochemical studies, 10 fields/samples were randomly quantified, where results represent the of 3 samples/plate mean for each concentration of DHA with PhA.

[2] = system: retinas from rats; experiment: MNU-induced retinal apoptosis in vivo
Experimental: The same materials and immunohystochemical and quantification methods as in Experiment A were used. Instead of using Paraquat for inducing apoptosis, N-Nitroso-N-methylurea (MNU) (Sigma-Alldrich) was used. Instead of analysing cultures in vitro, as in Experiment A, retins from sacrificed Wistar albino rats were analysed. For that purpose, 8 rats S-D with 42 days of age were selected and fed for 4 weeks with a standard basal diet. Each animal was fed in a different way: one rat was on a standard on control diet, while for the other 7 rats this diet was modified with DHA at 15%, having different concentrations of PhA as in Experiment A: 0/4/20/100/500/2500/12500 μgPhA/g of oil. After these 4 weeks, they were injected a single intraperitoneal injection of MNU (75 mg/kg body weight). All rats were on the same diet for 6 days, being sacrificed at the 7th day, after having fast for 24 hours, when the extraction of retinas was carried out, following the fixation and immunohystochemical processes as in Experiment A. For the cytochemical studies, 10 fields/samples were randomly quantified, where results represent the 10 eye/sample mean.

[3] = system: leukotrienes, prostaglandin E2, prostaglandin F2; conditions: cited from earlier work
[4] = toxic at doses as low as; cited from earlier work
[5] = DHA oils <5 μg/g of PhA compared with larger concentrations

## CC/C=C\C/C=C\C/C=C\C/C=C\C/C=C\C/C=C\CCC(=O)O [DHA]
[1]; DHA 9 mM with 0 and 4 μg/g of PhA, compared with ≧20 and ≧100 μg/g
  anti-apoptotic activity in photoreceptors: notably higher
[1]; [5]
  inhibitory activity of apoptosis (FIG. 1): greater inhibitory activity of apoptosis
  oxidative stress produced (FIG. 1): less
[1]; DHA with ≧20 μg/g and ≧100 μg/g of PhA
  anti-apoptotic activity in photoreceptors: significantly reduced
[1]; PhA concentration 2500 μg/g
  activity to inhibit apoptosis of photoreceptors: neutralised
[1]; PhA concentrations higher than 2500 μg/g
  apoptosis of photoreceptors: apoptosis of photoreceptors is induced
[1]; PhA ≦20 μg/g compared with ≧100 μg/g
  oxidative stress (Bcl-2/Bax index): significantly less oxidative stress
[2]; 20 μg/g of PhA versus rats fed with <5 μg/g
  ratio Bcl-2/Bax: significantly lower
[2]; PhA up to 12500 μgPhA/g of oil
  neutralisation of the inhibitor effect of the apoptosis: no neutralisation
[2]; diet with DHA at 15%, PhA between 0 and 20 μg/g, MNU 75 mg/kg i.p.
  anti-apoptotic activity in photoreceptors: greater anti-apoptotic activity
[2]; oral consumption of DHA <5 μg/g of PhA
  physiological activity as an inhibitor of apoptosis (FIG. 2): greater physiological activity
[2]; rats fed with DHA <5 μg/g
  anti-apoptotic activity and markers Bax and Bcl-2 with regards to DHA without PhA added: do not reveal alterations
[3]
  inhibition of the synthesis of leukotrienes: 76%
  reduction of prostaglandin E2: 40%
  reduction of prostaglandin F2: 81%

## CC(C)CCCC(C)CCCC(C)CCCC(C)CC(=O)O (stereo not shown) [PhA, phytanic acid]
[4]
  toxic dose: 0.1 μmol/mg fat
